Assays:
[1] = biological target: T1, KRAS^G12D protein (Homo sapiens, UniProt P01116, G12D); test: Protein degradation study (western blot) in Aspc-1 cells; assay type: cell-based; settings: for inhibition at 0.005 µM / inhibition at 0.05 µM / inhibition at 0.001 µM: ASPC1, 24 h, 24 hours, read-out: Rate of degradation; for inhibition at 0.005 µM: Aspc-1 cells treated with 0.005 μM compound; for inhibition at 0.05 µM: Aspc-1 cells treated with 50 nM compound; for DC50: Aspc-1 cells, half-maximum degradation concentration, read-out: DC50 of compounds induced Ras G12D protein degradation; for inhibition at 0.001 µM: Aspc-1 cells treated with 1 nM compound
T1 construct: host or cells: Aspc-1 (AsPC-1) cells
Procedure: Aspc-1 (Cobioer, CBP60546) cells in exponential growth phase were inoculated on a 6-well cell culture plate (Corning, 3516) at density of 1E6/well; and cells in the plate were cultured in 37° C. incubator containing 5%-carbon dioxide. The next day, testing compounds were dissolved in DMSO (Sigma, RNBF5902) for the preparation of a 10-mM concentration stock solution. The stock solution was diluted with complete medium (RPMI-1640 supplemented with 10% fetal bovine serum, 1% penicillin-streptomycin), yielding working solutions of various concentrations. The plate, after the addition of compounds, was placed in a 5% carbon dioxide incubator, and incubated at 37° C. for 24 hours (final DMSO concentration was 0.1%). The plate was then removed from the incubator, and the cells were washed twice with precooled PBS (Gibco, 14190250), followed by addition of 80-μL RIPA lysis buffer (containing protease inhibitor (Invitrogen™, AM2696)) to each well. The adherent cells were scraped off with a cell scraper, and the cell lysate was transferred to a 1.5-mL centrifuge tube followed with a 30-minute incubation on ice. The lysate was then clarified with centrifugation at 14000 rpm for 10 min at 4° C. The supernatant was transferred into a new 1.5-mL centrifuge tube, and protein concentration was measured with BCA protein detection kit (Thermo Fisher, 23225). G12D protein level was assessed by western blot.
A mixture of cell lysate (40 μL) and loading buffer (10 μL, 5×SDS (Beyotime, P0015L)) was denatured in a water-bath at 95° C. for 10 min. The denatured protein sample, at 30 μL/well, was loaded into corresponding well of 4-20% Bis-Tris gel (Kingsley, M00656). Protein samples were initially electrophoresed at 80 V for 30 minutes, followed by 120 V for 40 minutes, until the bromophenol blue strip ran to an appropriate position. After electrophoresis, iBlot2 (Life Technologies, IB21001) was used to transfer the separated samples onto PVDF film. The PVDF membrane was washed with double-distilled water and then blocked in TBST (Thermo Scientific, 28360) buffer containing 5% non-fat milk, for 2 hours. Blocked membrane was rinsed with tris-buffered saline tween-20 (Thermo Scientific, 28360, TBST) three times, 10 minutes each. Membrane was then incubated with 1:1000 diluted KRAS primary antibody (CST, cat #14429S) overnight at 4° C. Membrane was rinsed in a way described previously followed by 1 hour incubation of secondary antibody at room temperature. After washing the film for three times with TBST, ECL color developing solution was applied, and image was captured with Biorad Chemi Doc gel imager. The band gray value was quantified (Image Lab), and protein degradation level was calculated according to the following formula:
Level of RAS protein expression=(RAS-compound/GAPDH)/(RAS-DMSO/GAPDH)
Level of degradation (%)=(1−Rate of RAS protein expression)×100
Symbols of −, +, ++, +++ indicate that the degradation level of Ras protein induced by testing compounds are […], 11 to 30%, 31 to 60% and greater than 60%, respectively.
Half-maximum degradation concentrations (DC50s) of testing compounds were calculated using GraphPad Prism and their values were shown in Table 6. Symbols of […] represent DC50s equal or less than 10 nM, 11-50 nM, 51-100 nM, and 101-200 nM, respectively.

[2] = tested on: Aspc-1 cells; test: Cell proliferation study (Cell Titer Glo, 72 hours); assay type: cell-based; settings: Homo sapiens, ASPC1, read-out: IC50, inhibitory effect on cellular proliferation
Procedure: Aspc-1 (Cobioer, CBP60546) cells were grown in RPMI 1640 (Gibco, 61870127) supplemented with 10% fetal bovine serum (Gibco, 10099141), 1% penicillin-streptomycin (Gibco, 15070-063). Aspc-1 cells in exponential growth phase were seeded into 96-well plate (Corning, 3599) at density of 4×10^3/well. Cells were cultured overnight at 37° C. with 5% CO2. On the next day, cells were treated with compound at various concentrations for 72 hours in 37° C., 5% CO2 incubator (final DMSO concentration is 0.1%). After treatment, the cell plates were added 100 μL Cell Tier Glo (Promega, G7573) to every well and incubated at RT for 10 minutes. Cell growth status was measured with Cell Tier Glo (Promega, G7573) following manufacturer's directions. The inhibition curve was obtained with GraphPad 7.0 software using four-parameter equation.

T1 sequence (P01116 1-188 isoform P01116-2 G12D): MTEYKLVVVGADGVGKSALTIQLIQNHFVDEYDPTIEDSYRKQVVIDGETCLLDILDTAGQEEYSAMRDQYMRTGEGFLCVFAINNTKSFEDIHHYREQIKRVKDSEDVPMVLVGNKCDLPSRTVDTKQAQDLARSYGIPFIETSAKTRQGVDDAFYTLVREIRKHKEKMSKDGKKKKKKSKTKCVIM

| SMILES | inhibition at 0.005 µM [1] | inhibition at 0.05 µM [1] | DC50 [1] | IC50 [2] | inhibition at 0.001 µM [1] |
| --- | --- | --- | --- | --- | --- |
| C#Cc1c(F)ccc2cc(O)cc(-c3ccc4c(N5CC6CCC(C5)N6)nc(OCC5(CN6CCC7(CC6)CC(N6CCC(c8ccc9c(C%10CCC(=O)NC%10=O)nn(C)c9c8)CC6)C7)CC5)nc4c3F)c12 (stereo not drawn) [Compound 23a] | > 60% | > 60% | < 10 nM | < 100 nM | – |
| C#Cc1c(F)ccc2cc(O)cc(-c3ncc4c(N5CC6CCC(C5)N6)nc(OCC5(CN6CCC7(CC6)CC(N6CCC(c8ccc9c(N%10CCC(=O)NC%10=O)nn(C)c9c8)CC6)C7)CC5)nc4c3F)c12 [Compound 1a] | > 60% | > 60% | < 10 nM | < 100 nM | – |
| C#Cc1c(F)ccc2cc(O)cc(-c3ncc4c(N5CC6CCC(C5)N6)nc(OCC5(CN6CCC7(CC6)CC(N6CCC(c8cc9c(cc8F)c(N8CCC(=O)NC8=O)nn9C)C(F)(F)C6)C7)CC5)nc4c3F)c12 (stereo not drawn) [Compound 37a] | – | – | < 10 nM | < 100 nM | – |
| C#Cc1c(F)ccc2cc(O)cc(-c3ncc4c(N5CC6CCC(C5)N6)nc(OCC5(CN6CCC7(CC6)CC(CN6CCC(c8ccc9c(C%10CCC(=O)NC%10=O)nn(C)c9c8)CC6)C7)CC5)nc4c3F)c12 (stereo not drawn) [Compound 29a] | > 60% | 11 to 30% | < 10 nM | < 100 nM | – |
| C#Cc1c(F)ccc2cccc(-c3ncc4c(N5CC6CCC(C5)N6)nc(OCC5(CN6CCC7(CC6)CC(N6CCC(c8ccc9c%10c(cccc8%10)C(=O)N9C8CCC(=O)NC8=O)CC6)C7)CC5)nc4c3F)c12 (stereo not drawn) [Compound 14a] | > 60% | > 60% | < 10 nM | 101 to 1000 nM | > 60% |
| C#Cc1c(F)ccc2cc(O)cc(-c3ncc4c(N5CC6CCC(C5)N6)nc(OCC5(CN6CC7(CCC(N8CCC(c9ccc%10c(C%11CCC(=O)NC%11=O)nn(C)c%10c9)CC8)CC7)C6)CC5)nc4c3F)c12 (stereo not drawn) [Compound 31a] | > 60% | > 60% | < 10 nM | < 100 nM | – |
| Cn1nc(C2CCC(=O)NC2=O)c2ccc(C3CCN(C4CC5(CCN(CC6(COc7nc(N8CC9CCC(C8)N9)c8cnc(-c9cc(N)cc(Cl)c9C(F)(F)F)c(F)c8n7)CC6)CC5)C4)CC3)cc21 (stereo not drawn) [Compound 17a] | > 60% | > 60% | < 10 nM | < 100 nM | – |
| Nc1cc(Cl)c(C(F)(F)F)c(-c2ncc3c(N4CC5CCC(C4)N5)nc(OCC4(CN5CCC6(CC5)CC(N5CCC(c7ccc(NC8CCC(=O)NC8=O)cc7F)CC5)C6)CC4)nc3c2F)c1 (stereo not drawn) [Compound 21a] | 31 to 60% | > 60% | < 10 nM | < 100 nM | – |
| C#Cc1c(F)ccc2cc(O)cc(-c3ncc4c(N5CC6CCC(C5)N6)nc(OCC5(CN6CCC7(CC6)CC(C(=O)N6CCC(c8ccc9c(C%10CCC(=O)NC%10=O)nn(C)c9c8)CC6)C7)CC5)nc4c3F)c12 (stereo not drawn) [Compound 28a] | > 60% | > 60% | < 10 nM | < 100 nM | – |
| Cn1nc(N2CCC(=O)NC2=O)c2cc(F)c(C3CCN(C4CC5(CCN(CC6(COc7nc(N8CC9CCC(C8)N9)c8cc(Cl)c(-c9ccc(F)c%10sc(N)c(C#N)c9%10)c(F)c8n7)CC6)CC5)C4)CC3)cc21 [Compound 40a] | > 60% | – | < 10 nM | < 100 nM | – |
| C#Cc1c(F)ccc2cc(O)cc(-c3ncc4c(N5CC6CCC(C5)N6)nc(OCC5(CN6CCC7(CCC(CN8CCC(c9ccc%10c(C%11CCC(=O)NC%11=O)nn(C)c%10c9)CC8)CC7)CC6)CC5)nc4c3F)c12 (stereo not drawn) [Compound 26a] | > 60% | 11 to 30% | < 10 nM | < 100 nM | – |
| C#Cc1c(F)ccc2cc(O)cc(-c3ncc4c(N5CC6CCC(C5)N6)nc(OCC5(CN6CCC7(CCC(N8CCC(c9ccc%10c(C%11CCC(=O)NC%11=O)nn(C)c%10c9)CC8)CC7)CC6)CC5)nc4c3F)c12 (stereo not drawn) [Compound 33a] | > 60% | > 60% | < 10 nM | < 100 nM | – |
| C#Cc1c(F)ccc2cc(O)cc(-c3ncc4c(N5CC6CCC(C5)N6)nc(OCC5(CN6CCC7(CC6)CC(N6CCC(c8ccc(NC9CCC(=O)NC9=O)cc8F)CC6)C7)CC5)nc4c3F)c12 (stereo not drawn) [Compound 12a] | > 60% | > 60% | < 10 nM | < 100 nM | > 60% |
| C#Cc1c(F)ccc2cc(O)cc(-c3ncc4c(N5CC6CCC(C5)N6)nc(OCC5(CN6CCC(N7CC(CN8CCC(c9ccc%10c(C%11CCC(=O)NC%11=O)nn(C)c%10c9)CC8)C7)CC6)CC5)nc4c3F)c12 (stereo not drawn) [Compound 30a] | > 60% | > 60% | < 10 nM | < 100 nM | – |
| Nc1cc(Cl)c(C(F)(F)F)c(-c2ncc3c(N4CC5CCC(C4)N5)nc(OCC4(CN5CCC6(CC5)CC(N5CCC(c7ccc8c9c(cccc79)C(=O)N8C7CCC(=O)NC7=O)CC5)C6)CC4)nc3c2F)c1 (stereo not drawn) [Compound 13a] | > 60% | > 60% | < 10 nM | < 100 nM | > 60% |
| C#Cc1c(F)ccc2cc(O)cc(-c3ncc4c(N5CC6CCC(C5)N6)nc(OCC5(CN6CCC7(CC6)CC(N6CCC(c8cc9c(cc8F)c(N8CCC(=O)NC8=O)nn9C)CC6)C7)CC5)nc4c3F)c12 [Compound 2a] | > 60% | > 60% | < 10 nM | < 100 nM | – |
| C#Cc1c(F)ccc2cc(O)cc(-c3ncc4c(N5CC6CCC(C5)N6)nc(OCC5(CN6CC7(CCC(CN8CCC(c9ccc%10c(C%11CCC(=O)NC%11=O)nn(C)c%10c9)CC8)CC7)C6)CC5)nc4c3F)c12 (stereo not drawn) [Compound 32a] | > 60% | 31 to 60% | < 10 nM | < 100 nM | – |
| C#Cc1c(F)ccc2cccc(-c3ncc4c(N5CC6CCC(C5)N6)nc(OCC5(CN6CCC7(CC6)CC(N6CCC(c8ccc9c(C%10CCC(=O)NC%10=O)nn(C)c9c8)CC6)C7)CC5)nc4c3F)c12 (stereo not drawn) [Compound 16a] | > 60% | > 60% | – | 101 to 1000 nM | – |
| C#Cc1c(F)ccc2cc(O)cc(-c3ncc4c(N5CC6CCC(C5)N6)nc(OCC5(CN6CCC7(CCC(C(=O)N8CCC(c9ccc%10c(C%11CCC(=O)NC%11=O)nn(C)c%10c9)CC8)CC7)CC6)CC5)nc4c3F)c12 (stereo not drawn) [Compound 24a] | > 60% | 31 to 60% | < 10 nM | < 100 nM | – |

From patent publication US20240059712A1, “BIFUNCTIONAL COMPOUNDS AND PHARMACEUTICAL USES THEREOF” (priority 2022, published 2024)
